Assay results as given in patent US20130029991A1, “New Phenylsulfamoyl Benzamide Derivatives as Bradykinin Antagonists” (priority 2006, published 2013).
Counter-ions that a name gives are not always drawn. Like-named read-outs stand apart in the source and are kept apart here.

Legend:
[1] = molecular target: T1, recombinant human B1 receptors (Homo sapiens, UniProt P46663); assay: Functional assay: antagonist potency by cytosolic calcium measurement (fluo-4, plate reader fluorimeter) in CHO-B1 cells; type: cell-based
T1 construct: host or cells: CHO (CHO-B1)
T1 sequence (P46663 1-353): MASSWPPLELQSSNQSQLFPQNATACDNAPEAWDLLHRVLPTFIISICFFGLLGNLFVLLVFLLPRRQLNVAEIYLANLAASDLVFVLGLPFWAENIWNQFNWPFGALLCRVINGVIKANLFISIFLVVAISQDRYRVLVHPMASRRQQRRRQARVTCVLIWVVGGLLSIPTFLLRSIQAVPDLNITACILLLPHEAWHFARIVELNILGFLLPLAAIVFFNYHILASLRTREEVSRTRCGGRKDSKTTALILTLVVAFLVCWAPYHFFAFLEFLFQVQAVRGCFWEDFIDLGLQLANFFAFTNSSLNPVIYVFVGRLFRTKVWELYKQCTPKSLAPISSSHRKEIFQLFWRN
Description: Assessment of Antagonist Potency at B1 and B2 Receptors In Vitro by Measurement of Cytosolic Calcium Ion Concentration with a Plate Reader Fluorimeter in Cells Expressing Recombinant Human B1 or B2 Receptors
Chinese hamster ovary (CHO) cells stably expressing recombinant human B1 (CHO-B1, Euroscreen) or B2 (CHO-B2, Perkin-Elmer) receptors were cultured in Dulbecco's Modified Eagle's Medium (DMEM) containing 10% Fetal Calf Serum (FCS), 100 U/ml penicillin, 0.1 mg/ml streptomycin, 0.25 μg/ml amphotericin B, 1% Minimum Essential Medium Eagle (MEM), non essential amino acid solution, […], 1% pyruvate (for the B2 cell line). Cells were kept at 37° C. in a humidified incubator in an atmosphere of 5% CO2/95% air and were passaged 1:4 three times a week. Cells were plated at 1.5-2.5×10^4 cell/well on standard 96-well microplates, measurements of cytosolic calcium ion concentration ([Ca^2+]i) were carried out 1-2 days after cell plating.
Measurements of [Ca^2+]i were carried out on CHO-B1 and CHO-B2 cells stably expressing human B1 and B2 receptors, respectively. Cells were grown in standard 96-well microplates and before the measurement were loaded with a fluorescent Ca^2+-sensitive dye, fluo-4/AM (2 μM): after removing the culture medium the dye was added to the cells (dissolved in assay buffer: 145 mM NaCl, 5 mM KCl, 2 mM MgCl2, 2 mM CaCl2, 10 mM HEPES, 20 mM D-glucose, 2 mM probenecid, 100 μl/well) and cells were incubated at 37° C. in a humidified incubator in an atmosphere of 5% CO2/95% air for 40-120 min. To stop dye loading cells were washed twice with assay buffer. After washing, various concentrations of the test compounds (diluted in extracellular medium from a DMSO stock solution, final DMSO concentration was <0.1%) or buffer were added to each well depending on the experimental setup. After incubation at 37° C. for 20-25 min. baseline and agonist-evoked changes of [Ca^2+]i were measured column by column with a plate reader fluorimeter (Fluoroskan Ascent, Labsystems). Excitation and detection of emission was carried out from the bottom of the plate. Filters used for Fluo-4: excitation filter—485 nm, emission filter—538 nm. The whole measurement process was performed at 37° C. and was controlled by custom software Inhibitory potency of the test compounds was assessed by measuring the reduction in the agonist-evoked [Ca^2+]i-elevation in the presence of different concentrations of the compounds. The agonists were LysDABK for CHO-B1, and bradykinin for CHO-B2 cells. Agonists were applied at an EC80 concentration, the EC80-values were derived from daily determined dose-response curves. Fluorescence data were expressed as ΔF/F (fluorescence change normalized to baseline). All treatments on a single plate were measured in multiple wells. Data from all wells with the same treatment were averaged and the average values were used for analysis. Inhibitory potency of a compound at a single concentration point was expressed as percent inhibition of the control agonist response. Sigmoidal concentration-inhibition curves were fitted to the data (derived from at least three independent experiments) and IC50-values were determined as the concentration that produces half of the maximal inhibition caused by the compound.

[2] = molecular target: T2, human recombinant bradykinin B1 receptor (Homo sapiens, UniProt P46663); assay: Human recombinant bradykinin B1 receptor binding
T2 construct: host or cells: CHO cells
T2 sequence (P46663 1-353): T1 sequence (P46663 1-353)
Description: 1. Human Recombinant Bradykinin B1 Receptor Binding
Binding assays were carried out on human recombinant bradykinin) receptors (expressed in CHO cells) according to the Euroscreen Technical Data Sheet (Cat.No.:ES-091). 20 μg protein/tube was incubated with [3,4-prolyl-3,4-^3H(N)]-[Des-Arg^10] Kallidin as radioligand. Non specific binding was determined in the presence of 10 μM Lys-des-Arg^9-Bradykinin. The final incubation volume was 250 μl. Samples were incubated for 15 min. at 25° C. then were rapidly vacuum filtered through GF/B filters presoaked for at least 1 h in 0.5% PEI. Radioactivity was determined by liquid scintillation spectroscopy.

[3] = CHO-B1 cells, inhibition of LysDABK (EC80)-evoked [Ca2+]i elevation, read-out: B1 func.
[4] = CHO cell membranes, [3H]-[Des-Arg10] Kallidin radioligand, read-out: B1 binding

| IC50 [1, 3] | Ki [2, 4] | Compound | IC50 ([1]; reference compounds, functional test, read-out: IC50) | Ki ([2]; reference compounds, binding test, read-out: Ki) |
| --- | --- | --- | --- | --- |
| < 20 nM | < 20 nM | O=C(CNC(=O)c1ccc(S(=O)(=O)Nc2ccccc2C(=O)c2ccccc2)cc1)NCC1CCNCC1 [Example 18, 4-(2-Benzoyl-phenylsulfamoyl)-N-{[(piperidin-4-ylmethyl)-carbamoyl]-methyl}-benzamide hydrochloride] | – | – |
| < 20 nM | < 20 nM | N=C(N)NCc1ccc(CNC(=O)CNC(=O)c2ccc(S(=O)(=O)Nc3ccccc3Oc3ccc(Cl)cc3Cl)cc2)cc1 [Example 39, 4-[2-(2,4-Dichloro-phenoxy)-phenylsulfamoyl]-N-[(4-guanidinomethyl-benzylcarbamoyl)-methyl]-benzamide hydrochloride] | – | – |
| – | < 20 nM | O=C(CNC(=O)c1ccc(S(=O)(=O)Nc2ccccc2Oc2ccc(Cl)cc2Cl)cc1)NCCCCC1CCNCC1 [Example 59, 4-[2-(2,4-Dichloro-phenoxy)-phenylsulfamoyl]-N-[(4-piperidin-4-yl-butylcarbamoyl)-methyl]-benzamide hydrochloride] | – | – |
| < 20 nM | < 20 nM | O=C(CNC(=O)c1ccc(S(=O)(=O)Nc2ccccc2Oc2ccc(F)cc2)cc1)NCC1CCNCC1 [Example 12, 4-[2-(4-Fluoro-phenoxy)-phenylsulfamoyl]-N-{[(piperidin-4-ylmethyl)-carbamoyl]-methyl}-benzamide hydrochloride] | – | – |
| < 20 nM | < 20 nM | O=C(CNC(=O)c1ccc(S(=O)(=O)Nc2ccccc2Oc2ccccc2)cc1)NCCC1CCNCC1 [Example 10, 4-(2-Phenoxy-phenylsulfamoyl)-N-[(2-piperidin-4-yl-ethylcarbamoyl)-methyl]-benzamide hydrochloride] | – | – |
| < 20 nM | < 20 nM | O=C(CNC(=O)c1ccc(S(=O)(=O)Nc2cc(F)ccc2Oc2ccc(Br)cc2)cc1)NCC1CCNCC1 [Example 4, 4-[2-(4-Bromo-phenoxy)-5-fluoro-phenylsulfamoyl]-N-{[(piperidin-4-ylmethyl)-carbamoyl]-methyl}-benzamide trifluoroacetate] | – | – |
| < 20 nM | < 20 nM | C[C@H](NC(=O)c1ccc(S(=O)(=O)Nc2ccccc2Oc2ccc(Cl)cc2Cl)cc1)C(=O)NCC1CCNCC1 [Example 8, 4-[2-(2,4-Dichloro-phenoxy)-phenylsulfamoyl]-N—{(S)-1-[(piperidin-4-ylmethyl)-carbamoyl]-ethyl}-benzamide hydrochloride] | – | – |
| < 20 nM | < 20 nM | O=C(CNC(=O)c1ccc(S(=O)(=O)Nc2cc(F)ccc2Oc2ccc(F)cc2)cc1)NCCC1CCNCC1 [Example 13, 4-[5-Fluoro-2-(4-fluoro-phenoxy)-phenylsulfamoyl]-N-[(2-piperidin-4-yl-ethylcarbamoyl)-methyl]-benzamide hydrochloride] | – | – |
| – | < 20 nM | CN(CCc1ccncc1)C(=O)CNC(=O)c1ccc(S(=O)(=O)Nc2ccccc2Oc2ccc(Cl)cc2Cl)cc1 [Example 43, 4-[2-(2,4-Dichloro-phenoxy)-phenylsulfamoyl]-N-{[methyl-(2-pyridin-4-yl-ethyl)-carbamoyl]-methyl}-benzamide] | – | – |

Continued, molecule first:

| Compound | IC50 [1, 3] | Ki [2, 4] | IC50 ([1]; reference compounds, functional test, read-out: IC50) | Ki ([2]; reference compounds, binding test, read-out: Ki) |
| --- | --- | --- | --- | --- |
| O=C(CNC(=O)c1ccc(S(=O)(=O)Nc2ccccc2Oc2ccc(Cl)cc2Cl)cc1)NCCCn1ccnc1 [Example 29, 4-[2-(2,4-Dichloro-phenoxy)-phenylsulfamoyl]-N-[(3-imidazol-1-yl-propylcarbamoyl)-methyl]-benzamide] | < 20 nM | < 20 nM | – | – |
| O=C(CNC(=O)c1ccc(S(=O)(=O)Nc2ccccc2Oc2ccc(Br)cc2Cl)cc1)NCC1CCNCC1 [Example 37, 4-[2-(4-Bromo-2-chloro-phenoxy)-phenylsulfamoyl]-N-{[(piperidin-4-ylmethyl)-carbamoyl]-methyl}-benzamide hydrochloride] | < 20 nM | < 20 nM | – | – |
| O=C(NC(Cc1ccccc1)C(=O)NCC1CCNCC1)c1ccc(S(=O)(=O)Nc2ccccc2Oc2ccc(Cl)cc2Cl)cc1 (centres unmarked) [Example 6, 4-[2-(2,4-Dichloro-phenoxy)-phenylsulfamoyl]-N-{2-phenyl-1-[(piperidin-4-ylmethyl)-carbamoyl]-ethyl}-benzamide hydrochloride] | < 20 nM | < 20 nM | – | – |
| O=C(CNC(=O)c1ccc(S(=O)(=O)Nc2ccccc2Oc2ccc(Cl)cc2Cl)cc1)NCCN1CCOCC1 [Example 30, 4-[2-(2,4-Dichloro-phenoxy)-phenylsulfamoyl]-N-[(2-morpholin-4-yl-ethylcarbamoyl)-methyl]-benzamide] | < 20 nM | < 20 nM | – | – |
| CC1CCCCN1CCCNC(=O)CNC(=O)c1ccc(S(=O)(=O)Nc2ccccc2Oc2ccccc2)cc1 (centres unmarked) [Example 56, N-{[3-(2-Methyl-piperidin-1-yl)-propylcarbamoyl]-methyl}-4-(2-phenoxy-phenylsulfamoyl)-benzamide] | < 20 nM | < 20 nM | – | – |
| COc1ccc(NS(=O)(=O)c2ccc(C(=O)NCC(=O)NCC3CCNCC3)cc2)c(Oc2ccc(Cl)cc2Cl)c1 [Example 11, 4-[2-(2,4-Dichloro-phenoxy)-4-methoxy-phenylsulfamoyl]-N-{[(piperidin-4-ylmethyl)-carbamoyl]-methyl}-benzamide hydrochloride] | 20 to 100 nM | 20 to 100 nM | – | – |
| CCCN1C(=O)[C@H](NC(=O)Nc2ccc(N3CCC(N4CCCCC4)CC3)cc2)N=C(c2ccc(C)cc2)c2ccccc21 [N-[4-(,4′-bipiperidin)-1′-ylphenyl]-N′-[(3R)-2,3-dihydro-5-(4-methyl-phenyl)-2-oxo-1-propyl-1H-1,4-benzodiazepin-3-yl]-urea, reference compound] | – | – | 64.5 nM | 13.4 nM |
| CC1CCCCN1CCCNC(=O)CNC(=O)c1ccc(S(=O)(=O)Nc2ccccc2Oc2ccc(Cl)cc2Cl)cc1 (centres unmarked) [Example 28, 4-[2-(2,4-Dichloro-phenoxy)-phenylsulfamoyl]-N-{[3-(2-methyl-piperidin-1-yl)-propylcarbamoyl]-methyl}-benzamide] | < 20 nM | < 20 nM | – | – |
| O=C(CNC(=O)c1ccc(S(=O)(=O)Nc2ccccc2Nc2ccccc2)cc1)NCC1CCNCC1 [Example 103, 4-(2-Phenylamino-phenylsulfamoyl)-N-{[(piperidin-4-ylmethyl)-carbamoyl]-methyl}-benzamide hydrochloride] | – | < 20 nM | – | – |
| CN(C)CC(C)(C)CNC(=O)CNC(=O)c1ccc(S(=O)(=O)Nc2ccccc2Oc2ccc(Cl)cc2Cl)cc1 [Example 35, 4-[2-(2,4-Dichloro-phenoxy)-phenylsulfamoyl]-N-[(3-dimethylamino-2,2-dimethyl-propylcarbamoyl)-methyl]-benzamide] | – | < 20 nM | – | – |
| N#CCc1ccc(NC(=O)CNC(=O)c2ccc(S(=O)(=O)Nc3ccccc3Oc3ccccc3)cc2)cc1 [Example 73, N-[(4-Cyanomethyl-phenylcarbamoyl)-methyl]-4-(2-phenoxy-phenylsulfamoyl)-benzamide] | – | < 20 nM | – | – |
